Target: T1, HCMV polymerase (Human cytomegalovirus, UniProt P08546)
T1 construct: made in house; host or cells: SF-9 insect cells infected with recombinant baculovirus
Test: HCMV polymerase assay (scintillation proximity assay)
Assay type: biochemical
Conditions: percentage of inhibition at 25 μM concentration in CMV polymerase assay
Summary of the method: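 Values are percent inhibition at 25 μM, measured by scintillation proximity after capture of biotinylated poly(dA)-oligo(dT) (6 nM) extended with 90 nM 3H-dTTP. Recombinant SF-9-derived enzyme reacted 30 min at 25 or 37 °C in HEPES pH 7.5/KCl/MgCl2/BSA buffer, ±2 mM CHAPS, before EDTA termination.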

T1 sequence (P08546 whole entry): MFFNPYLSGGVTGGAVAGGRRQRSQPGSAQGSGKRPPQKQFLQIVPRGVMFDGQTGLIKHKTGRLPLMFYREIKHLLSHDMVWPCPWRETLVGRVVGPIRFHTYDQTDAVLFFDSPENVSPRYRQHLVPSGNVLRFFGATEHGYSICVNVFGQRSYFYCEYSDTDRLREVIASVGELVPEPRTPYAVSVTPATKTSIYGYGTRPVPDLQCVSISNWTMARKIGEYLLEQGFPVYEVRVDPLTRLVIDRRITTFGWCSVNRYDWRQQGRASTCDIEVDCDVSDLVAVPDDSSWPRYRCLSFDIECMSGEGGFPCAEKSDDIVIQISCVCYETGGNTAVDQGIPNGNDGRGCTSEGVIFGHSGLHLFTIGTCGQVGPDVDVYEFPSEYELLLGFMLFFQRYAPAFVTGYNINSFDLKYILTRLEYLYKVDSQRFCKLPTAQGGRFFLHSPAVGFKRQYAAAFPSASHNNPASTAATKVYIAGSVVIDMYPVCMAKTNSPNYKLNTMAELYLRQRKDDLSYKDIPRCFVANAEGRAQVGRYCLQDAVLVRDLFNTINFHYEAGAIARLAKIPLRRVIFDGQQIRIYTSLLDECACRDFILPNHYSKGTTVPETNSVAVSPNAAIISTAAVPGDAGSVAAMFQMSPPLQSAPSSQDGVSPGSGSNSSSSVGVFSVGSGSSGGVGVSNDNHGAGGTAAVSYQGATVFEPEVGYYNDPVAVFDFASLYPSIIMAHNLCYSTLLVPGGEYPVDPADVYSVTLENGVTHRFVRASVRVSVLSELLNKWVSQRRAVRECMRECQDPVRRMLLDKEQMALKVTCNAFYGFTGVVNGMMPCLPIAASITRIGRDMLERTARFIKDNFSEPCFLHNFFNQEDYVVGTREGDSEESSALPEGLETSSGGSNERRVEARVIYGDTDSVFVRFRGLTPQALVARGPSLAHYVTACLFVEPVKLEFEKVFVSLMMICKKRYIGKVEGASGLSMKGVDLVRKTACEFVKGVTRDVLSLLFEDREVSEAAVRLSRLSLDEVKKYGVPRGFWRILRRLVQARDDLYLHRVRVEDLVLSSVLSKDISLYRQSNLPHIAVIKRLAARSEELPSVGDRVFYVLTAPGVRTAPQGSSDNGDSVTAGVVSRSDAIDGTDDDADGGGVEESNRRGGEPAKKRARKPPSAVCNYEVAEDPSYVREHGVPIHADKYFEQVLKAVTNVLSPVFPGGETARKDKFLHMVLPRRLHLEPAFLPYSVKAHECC

Row | SMILES | inhibition at 25 µM | % Inhib
1 | O=C(Nc1nnc(NCCC(c2ccccc2)c2ccccc2)s1)c1c(Cl)cccc1Cl [compound 63, 2,6-dichloro-N-{5-[(3,3-diphenylpropyl)amino]1,3,4-thiadiazol-2-yl}benzamide] | 73.8% | –
2 | O=C(Nc1nnc(NCCCNC2CCCCC2)s1)c1cc(F)cc(F)c1 [compound 275, N-(5-{[3-(cyclohexylamino)propyl]amino]-1,3,4-thiadiazol-2-yl)-3,5-difluorobenzamide] | 37.9% | –
3 | N#Cc1ccc(C(=O)Nc2nnc(NCc3cccc4ccccc34)s2)cc1 [compound 155, 4-cyano-N-{5-[(1-naphthylmethyl)amino]-1,3,4-thiadiazol-2-yl}benzamide] | 53.3% | –
4 | CC1(C)C2CC[C@@H](CNc3nnc(NC(=O)c4cc(F)cc(F)c4)s3)C1C2 (stereo partly drawn) [compound 389, N-[5-({[(2R)-6,6-dimethylbicyclo[3.1.1]hept-2-yl]methyl}amino)-1,3,4-thiadiazol-2-yl]-3,5-difluorobenzamide] | 26.5% | –
5 | O=C(Nc1nnc(NCc2cccc3ccccc23)s1)c1c(Cl)cccc1Cl [compound 101, 2,6-dichloro-N-{5-[(1-naphthylmethyl)amino]-1,3,4-thiadiazol-2-yl}benzamide] | 65% | –
6 | O=C(Nc1nnc(NC2CCCCCC2)s1)c1cc2ccccc2s1 [compound 256, N-[5-(cycloheptylamino)-1,3,4-thiadiazol-2-yl]-1-benzothiophene-2-carboxamide] | 39.8% | –
7 | O=C(Nc1nnc(NC2CCN(Cc3ccccc3)CC2)s1)c1c(Cl)cccc1Cl [compound 151, N-{5-[(1-benzyl-4-piperidinyl)amino]-1,3,4-thiadiazol-2-yl}-2,6-dichlorobenzamide] | 54% | –
8 | O=C(Nc1nnc(NCc2ccc(F)cc2)s1)c1cc(F)cc(F)c1 [compound 451, 3,5-difluoro-N-{5-[(4-fluorobenzyl)amino]-1,3,4-thiadiazol-2-yl}benzamide] | 21.4% | –
9 | O=C(Nc1nnc(NCCC(c2ccccc2)c2ccccc2)s1)c1cccc([N+](=O)[O-])c1 [compound 226, N-{5-[(3,3-diphenylpropyl)amino]-1,3,4-thiadiazol-2-yl}-3-nitrobenzamide] | 42.9% | –
10 | O=C(Nc1nnc(NC2CCc3ccccc32)s1)c1c(Cl)cccc1Cl (stereo not drawn) [compound 115, 2,6-dichloro-N-[5-(2,3-dihydro-1H-inden-1-ylamino)-1,3,4-thiadiazol-2-yl]benzamide] | 62% | –
11 | O=C(/C=C/c1ccccc1Cl)Nc1nnc(NC2CC2)s1 [compound 353, (E)-3-(2-chlorophenyl)-N-[5-(cyclopropylamino)-1,3,4-thiadiazol-2-yl]-2-propenamide] | 30.2% | –
12 | CC(C)c1cc(C(C)C)c(C(=O)Nc2nnc(NCCc3ccc(S(N)(=O)=O)cc3)s2)c(C(C)C)c1 [compound 128, N-(5-{[4-(aminosulfonyl)phenethyl]amino}1,3,4-thiadiazol-2-yl)-2,4,6-triisopropylbenzamide] | 58.3% | –
13 | O=C(Nc1nnc(NCC(c2ccccc2)c2ccccc2)s1)c1ccc([N+](=O)[O-])o1 [compound 306, N-{5-[(2,2-diphenylethyl)amino]-1,3,4-thiadiazol-2-yl}-5-nitro-2-furamide] | 34.4% | –
14 | CC(C)c1cc(C(C)C)c(C(=O)Nc2nnc(NCCCn3ccnc3)s2)c(C(C)C)c1 [compound 87, N-(5-{[3-(1H-imidazol-1-yl)propyl]amino}-1,3,4-thiadiazol-2-yl)-2,4,6-triisopropylbenzamide] | 67% | –
15 | Cc1ccc(C(=O)Nc2nnc(NCC3CCCCC3)s2)cc1 [compound 449, N-{5-[(cyclohexylmethyl)amino]-1,3,4-thiadiazol-2-yl}-4-methylbenzamide] | 21.5% | –
16 | O=C(Nc1nnc(NCCCN2CCCC2=O)s1)c1ccc(S(=O)(=O)F)cc1 [compound 371, 4-{[(5-{[3-(2-oxo-1-pyrrolidinyl)propyl]amino}-1,3,4-thiadiazol-2-yl)amino]carbonyl}benzenesulfonyl fluoride] | – | 28.1%
17 | CC(C)c1cc(C(C)C)c(C(=O)Nc2nnc(NCCc3c[nH]cn3)s2)c(C(C)C)c1 [compound 317, N-(5-{[2-(1H-imidazol-4-yl)ethyl]amino}-1,3,4-thiadiazol-2-yl)-2,4,6-triisopropylbenzamide] | 33.6% | –
18 | O=C(Nc1nnc(NCc2ccc3c(c2)OCO3)s1)c1cc(F)cc(F)c1 [compound 372, N-{5-[(1,3-benzodioxol-5-ylmethyl)amino]-1,3,4-thiadiazol-2-yl}-3,5-difluorobenzamide] | 28.1% | –
19 | O=C(Nc1nnc(NCCSc2ccccc2)s1)c1ccc2c(c1)C(=O)OC2=O [compound 33, 1,3-dioxo-N-(5-{[2-(phenylsulfanyl)ethyl]amino}-1,3,4-thiadiazol-2-yl)-1,3-dihydro-2-benzofuran-5-carboxamide] | 90.1% | –
20 | O=C(Nc1nnc(NCc2cccc3ccccc23)s1)c1ccc(S(=O)(=O)F)cc1 [compound 195, 4-[({5-[(1-naphthylmethyl)amino]-1,3,4-thiadiazol-2-yl}amino)carbonyl]benzenesulfonyl fluoride] | – | 46.7%
21 | O=C(Nc1nnc(NCc2ccc(Cl)c(Cl)c2)s1)c1ccc2c(c1)C(=O)OC2=O [compound 12, N-{5-[(3,4-dichlorobenzyl)amino]-1,3,4-thiadiazol-2-yl}-1,3-dioxo-1,3-dihydro-2-benzofuran-5-carboxamide] | 99.5% | –
22 | CC1(C)C2CC[C@@H](CNc3nnc(NC(=O)c4ccc([N+](=O)[O-])o4)s3)C1C2 (stereo partly drawn) [compound 209, N-[5-({[(2R)-6,6-dimethylbicyclo[3.1.1]hept-2-yl]methyl}amino)-1,3,4-thiadiazol-2-yl]-5-nitro-2-furamide] | 44.7% | –
23 | CC(C)c1cc(C(C)C)c(C(=O)Nc2nnc(NCCN3CCCC3)s2)c(C(C)C)c1 [compound 169, 2,4,6-triisopropyl-N-(5-{[2-(1-pyrrolidinyl)ethyl]amino}-1,3,4-thiadiazol-2-yl)benzamide] | 50.7% | –

Further lines, with some results ahead:

Row | inhibition at 25 µM | SMILES | % Inhib
24 | 97% | CCCCCCCC/C=C/CCCCCCCC(=O)Nc1nnc(NCCN(C)C)s1 [compound 23, (E)-N-(5-{[2-(dimethylamino)ethyl]amino}-1,3,4-thiadiazol-2-yl)-9-octadecenamide] | –
25 | 66.3% | CCOc1ccc2ccccc2c1C(=O)Nc1nnc(NCCc2c[nH]cn2)s1 [compound 89, 2-ethoxy-N-(5-{[2-(1H-imidazol-4-yl)ethyl]amino}-1,3,4-thiadiazol-2-yl)-1-naphthamide] | –
26 | 38.7% | NS(=O)(=O)c1ccc(CCNc2nnc(NC(=O)c3cc4ccccc4s3)s2)cc1 [compound 267, N-(5-{[4-(aminosulfonyl)phenethyl]amino}-1,3,4-thiadiazol-2-yl)-1-benzothiophene-2-carboxamide] | –
27 | 26.2% | CCCCCCCC/C=C/CCCCCCCC(=O)Nc1nnc(NCCc2c[nH]cn2)s1 [compound 391, (E)-N-(5-{[2-(1H-imidazol-4-yl)ethyl]amino}-1,3,4-thiadiazol-2-yl)-9-octadecenamide] | –
28 | 64.9% | N#Cc1ccc(C(=O)Nc2nnc(NCCc3cccs3)s2)cc1 [compound 102, 4-cyano-N-(5-{[2-(2-thienyl)ethyl]amino}-1,3,4-thiadiazol-2-yl)benzamide] | –
29 | 43.6% | O=C(/C=C/c1ccccc1)Nc1nnc(NCCN2CCOCC2)s1 [compound 220, (E)-N-{5-[(2-morpholinoethyl)amino]-1,3,4-thiadiazol-2-yl}-3-phenyl-2-propenamide] | –
30 | 20.2% | O=C(/C=C/c1ccccc1)Nc1nnc(NC2CC2)s1 [compound 465, (E)-N-[5-(cyclopropylamino)-1,3,4-thiadiazol-2-yl]-3-phenyl-2-propenamide] | –
31 | 85.7% | CCCCCCCC/C=C/CCCCCCCC(=O)Nc1nnc(NCCc2cccs2)s1 [compound 41, (E)-N-(5-{[2-(2-thienyl)ethyl]amino}-1,3,4-thiadiazol-2-yl)-9-octadecenamide] | –
32 | 71.1% | NS(=O)(=O)c1ccc(CCNc2nnc(NC(=O)c3ccc(I)cc3)s2)cc1 [compound 68, N-(5-{[4-(aminosulfonyl)phenthyl]amino}-1,3,4-thiadiazol-2-yl)-4-iodobenzamide] | –
33 | 24% | CN1CCN(CCCNc2nnc(NC(=O)/C=C/c3ccccc3Cl)s2)CC1 [compound 422, (E)-3-(2-chlorophenyl)-N-(5-{[3-(4-methylpiperazino)propyl]amino}-1,3,4-thiadiazol-2-yl)-2-propenamide] | –
34 | 30.9% | N#Cc1ccc(C(=O)Nc2nnc(NCCc3ccccc3)s2)cc1 [compound 345, 4-cyano-N-[5-(phenethylamino)-1,3,4-thiadiazol-2-yl]benzamide] | –
35 | 41.6% | O=C(Nc1nnc(NCCNc2ccccc2)s1)c1cc2ccccc2s1 [compound 236, N-{5-[(2-anilinoethyl)amino]-1,3,4-thiadiazol-2-yl}-1-benzothiophene-2-carboxamide] | –
36 | 99.9% | CCCCCCCC/C=C/CCCCCCCC(=O)Nc1nnc(NCCC2CCCN2C)s1 (stereo not drawn) [compound 5, (E)-N-(5-{[2-(1-methyl-2-pyrrolidinyl)ethyl]amino}-1,3,4-thiadiazol-2-yl)-9-octadecenamide] | –
37 | 55.4% | NS(=O)(=O)c1ccc(CCNc2nnc(NC(=O)c3ccc(Cl)c(Cl)c3)s2)cc1 [compound 142, N-(5-{[4-(aminosulfonyl)phenethyl]amino}-1,3,4-thiadiazol-2-yl)-3,4-dichlorobenzamide] | –
38 | 41.3% | CCOc1ccc2ccccc2c1C(=O)Nc1nnc(NCCCn2ccnc2)s1 [compound 242, 2-ethoxy-N-(5-{[3-(1H-imidazol-1-yl)propyl]amino}-1,3,4-thiadiazol-2-yl)-1-naphthamide] | –
39 | 42.3% | CCOc1ccc2ccccc2c1C(=O)Nc1nnc(NCCCCc2ccccc2)s1 [compound 231, 2-ethoxy-N-{5-[(4-phenylbutyl)amino]-1,3,4-thiadiazol-2-yl}-1-naphthamide] | –
